Publication PMC8551334 (Scientific Reports, 2021)
≈ marks a conversion by molar mass, not a printed value. Like-named read-outs stand apart in the source and are kept apart here.

What was measured:
DENV-3 progeny [1] = test: Post-infection assay, intracellular DENV-3 progeny, FFURA; type: cell-based, dengue virus; settings: for IC50: 48 h treatment, mean ± SEM, read-out: IC50 against DENV-3 progeny, FFURA
Method: (§1) The antiviral activity of flavonoids was determined by measuring the reduction in the number of DENV infectious foci after treatment. The antiviral assays were performed based on Zandi et al.[14] with minor modifications. Briefly, a confluent monolayer of Vero cells seeded in 24-well plates was treated with flavonoids before or after or with the virus infection and incubated for 4 days. The virus foci were visualized using immunostaining. The flavonoids' antiviral activities were determined by calculating the percentage of foci reduction (%RF) according to the following equation: Percentageofinhibition%=(C-T)/C×100% where, C is the number of foci without the flavonoid treatment (control). T is the number of foci with the respective flavonoid treatment.
(§2) To determine the activity of flavonoids in inhibiting the intracellular viral progeny, Vero cells (1 × 10^5 cells/well) in a 24-wells plate were infected with DENV-3 (MOI = 0.1) for 1 h at 37 °C. […] After 48 h, the viral supernatant was collected, and twofold dilution was used to reinfect fresh monolayer of Vero cells, and the reduction in viral titer was quantified using FFURA and qRT-PCR.
(§3) The maximum non-toxic dose (MNTD80) and 50% of inhibition (IC50) of flavonoids in Vero cells were calculated using Prism software (GraphPadPrism8, CA, USA) by applying four-parameter logistic non-linear regression model. The selectivity index (SI) was calculated as SI = CC50/IC50. Data presented are the mean ± SEM of three independent experiments. The student t-test was used to analyze the antiviral activity of flavonoids compared to a positive control (*p < 0.05, **p < 0.01, ***p < 0.001, ****p < 0.0001).

DENV-3 [2] = test: FACS neutralization test (FNT); type: cell-based, dengue virus; settings: for FACS gating percentage (FITC-positive population): 10,000 events
Method: Vero cells were seeded in 24 well plates at a density of 1 × 10^5 cells/well and incubated overnight. The antiviral assays were done using MOI 0.5 DENV-3, and FNT was carried out 48 h post-infection. Viral infected cells were harvested by trypsinization and centrifugation (1500 rpm, 5 min). Harvested cells were washed with PBS and fixed with 250 µL of BD Cytofix/Cytoperm™ Fixation/Permeabilization solution kit with BD GolgiStop™ (BD Biosciences, USA) solution and incubated on ice for 20 min in the dark. The cells were centrifuged at 3000 rpm for 2 min and washed two times with stain buffer (PBS + 5%FBS). Staining was performed with 50 µL of anti-dengue virus type III primary antibody, clone 5D4-11 (MAB8703 Sigma-Aldrich, USA), diluted in Cytoperm/Cytowash solution at a ratio of 1:1000 and incubated for 1 h on ice. After that, the cells were washed and stained with 50 µL of FITC-conjugated secondary antibody (Sigma-Aldrich, USA) diluted in Cytoperm/Cytowash solution at a ratio of 1:1000 and incubated for 1 h on ice in the dark. The samples were analyzed in a BD FACSCalibur flow cytometer (BD Biosciences, USA) using BD Cellquest pro software. For each sample, 10,000 events were collected, and the percent reduction in the number of infected cells was calculated using the following equation. Percentageofinhibition%=(C-T)/C×100% where, C is the percentage of viral infected cells among the 10,000 events without flavonoid treatment (control). T is the percentage of infected cells among the 10,000 events with the respective flavonoid treatment.
Percent reduction in virus-infected cells was represented as the mean ± standard error of the mean (SEM) from triplicate assays determined from three independent experiments.

DENV-3 progeny [3] = test: Post-infection assay, intracellular DENV-3 progeny, qRT-PCR; type: cell-based, dengue virus; settings: for IC50: Dengue virus, DENV3, 48 h treatment, mean ± SEM, read-out: IC50 against DENV-3 progeny, qRT-PCR
Method: (§4) Viral RNA extraction was performed using QIAamp^R Viral RNA extraction kit (QIAGEN, Germany), and viral RNA copy number was quantified using the genesig Real-Time qRT-PCR Standard Kit (PrimerDesign, UK). The reactions were in a final volume of 20 μL containing 10 μL of the master mix, 1 μL of probe/primer mix, 4 μL of nuclease-free water, and 5 μL of viral RNA template. Quantitative PCR was performed using a CFX96 Touch™ Real-Time PCR Detection System (Bio-Rad, USA.) with the following conditions: 10 min at 55 °C (reverse transcription), 2 min at 95 °C (enzyme activation) followed by 50 cycles of amplification (10 s at 95 °C, 60 s at 60 °C). The viral RNA copy number was determined based on the threshold cycles (Ct) and standard curve generated from known RNA standards.
as §2, §3

DENV-3 [4] = test: Virucidal assay against extracellular DENV-3, FFURA (foci reduction); type: cell-based, dengue virus; settings: for IC50: extracellular DENV-3, reduction in virus foci, mean ± SEM; for Viral foci reduction at highest concentration, virucidal assay: silymarin 200 µg/mL, baicalein 100 µg/mL, baicalin 20 µg/mL, DENV-3
Method: as §1
(§5) After 1 h, the flavonoid-treated virus was used to infect Vero cells at 37 °C for 1 h. Then, the unabsorbed virus was removed, and the cells were washed and overlaid with 1 mL of overlay medium. After 4 days, the reduction in foci was determined by immunostaining. Another parallel experiment was carried out by replacing the overlay medium with DMEM supplemented with 2% FBS to determine the reduction in viral RNA copy number by qRT-PCR as previously described.
as §3

DENV-2 = test: Virucidal assay against DENV-2, FFURA; type: cell-based; settings: Dengue virus, DENV2; read-out: Viral infectivity inhibition, DENV-2
Method: as §1, §5

DENV-4 = test: Virucidal assay against DENV-4, FFURA; type: cell-based; settings: Dengue virus, DENV4; read-out: Viral infectivity inhibition, DENV-4
Method: as §1, §5

DENV-3 [5] = test: Virucidal assay against extracellular DENV-3, qRT-PCR (viral RNA copy number); type: cell-based, dengue virus; settings: for IC50: Dengue virus, DENV3, extracellular DENV-3, reduction in viral RNA copy number, mean ± SEM
Method: as §4, §5, §3

DENV-3 [6] = test: Time course assay for virucidal activity; type: cell-based, dengue virus; settings: for Time taken to achieve 50% viral infectivity inhibition: co-incubation with DENV-3
Method: Vero cells (1 × 10^5 cells/well) were grown overnight in a 24-well plate. […] Cells were infected with the flavonoid-treated virus and incubated at 37 °C for 1 h. Then, the unabsorbed virus was removed, and the cells were washed and overlaid with 1 mL of overlay medium. After 4 days, the reduction in foci was determined by immunostaining.

DENV-1 = test: Virucidal assay against DENV-1, FFURA; type: cell-based; settings: Dengue virus, DENV1; read-out: Viral infectivity inhibition, DENV-1
Method: as §1, §5

Vero cells [7] = test: Cytotoxicity of flavonoids in Vero cells by MTS assay; type: cell-based, African green monkey; settings: 48 h; for Concentrations up to which no significant cytotoxic effects were seen: African green monkey; for MNTD80 (maximum non-toxic dose, 80% of cells viable): Vero cells, MTS assay, mean ± SEM
Method: (§6) The cytotoxic potential of flavonoids in Vero cells was assessed by MTS assay. Briefly, confluent Vero cells in a 96 well plate were treated with different concentrations of flavonoids in triplicates with DMEM containing 2% FBS. After 2 days, 20 μL of 3-(4,5-Dimethylthiazol-2-yl)-5-(3-carboxymethoxyphenyl)-2-(4-sulfophenyl)-2H-tetrazolium (MTS) reagent (Promega, France) was added to each well. After 1 h of incubation at 37 °C, the cells were agitated, and the absorbance was measured at 490 nm in a microplate reader (Tecan, Infinite M2000, Switzerland). Maximum non-toxic dose (MNTD80) and 50% cytotoxic concentration (CC50) were calculated by non-linear regression using prism software (GraphPadPrism8, USA).
as §3

[8] = as above; type: cell-based, African green monkey; settings: African green monkey
Method: as §6, §3

DENV-3 [9] = test: Entry assay; type: cell-based, dengue virus
Method: Pre-chilled DENV-3 (80 FFU/well) in the absence of flavonoids were added to the pre-chilled Vero cells and incubated at 4 °C to allow virus attachment. […] After that, the medium containing flavonoids was removed, and Vero cells were washed and treated with acidic PBS (pH 3) for 60 s to inactivate the extracellular virus. After 60 s, the acidic PBS was neutralized by alkaline PBS (pH 11) in each well. Next, cells were then washed with serum-free media and overlaid with 1 mL of overlay medium. After 4 days, the reduction in foci was determined by immunostaining.

DENV-3 [10] = test: Attachment assay; type: cell-based, dengue virus
Method: Vero cells (1 × 10^5 cells/well) were grown overnight in a 24-well plate. […] After 1 h, the flavonoid-treated virus is incubated on ice for 15 min. Next, pre-chilled Vero cells were infected with the pre-chilled flavonoid-treated virus at 4 °C for 1 h to allow virus attachment. Then, the unabsorbed virus was removed, and the cells were washed and overlaid with 1 mL of overlay medium. After 4 days, the reduction in foci was determined by immunostaining.

EVA-71 = settings: cited from earlier work
Vero cells [11] = system: Vero cells; parameters: method as in Moghaddam et al. 15; settings: ref Moghaddam et al. 15; cited from earlier work
[12] = Dengue virus, DENV3, post-infection assay
[13] = Dengue virus, DENV3, read-out: Maximum inhibition of intracellular viral progeny infectivity
[14] = silymarin 200, baicalein 100, baicalin 20 µg/mL

## O=c1cc(-c2ccccc2)oc2cc(O)c(O)c(O)c12 [Baicalein]
DENV-3 progeny [1]; [12]
  IC50: 34.7 ± 6.71 µg/mL (≈ 128 µM)
DENV-3 progeny [1]; [13]
  inhibition at 100 µg/mL: 79.7%
DENV-3 [2]; [14]
  FACS gating percentage (FITC-positive population): 0.44%
DENV-3 [2]; MOI 0.5, 48 h post-infection, silymarin 200, baicalein 100, baicalin 20 µg/mL
  Percentage of inhibition of DENV-3 infected cell population (FNT): 97.92%
DENV-3 progeny [3]
  IC50: 29.7 ± 12.8 µg/mL (≈ 110 µM)
DENV-3 [4]; Dengue virus, DENV3
  IC50: 12.7 ± 3.49 µg/mL (≈ 47 µM)
DENV-3 [4]; Dengue virus, DENV3, read-out: Viral infectivity inhibition, DENV-3
  inhibition at 100 µg/mL: 99.68 ± 0.1%
DENV-3 [4]
  Viral foci reduction at highest concentration, virucidal assay: 99.78%
DENV-2
  inhibition at 100 µg/mL: 97.2 ± 1.41%
DENV-4
  inhibition at 100 µg/mL: 80.49 ± 0.26%
DENV-3 [5]
  IC50: 17.2 ± 2.48 µg/mL (≈ 63.8 µM)
DENV-3 [6]; 0 min co-incubation, silymarin 200, baicalein 100, baicalin 20 µg/mL
  Viral infectivity inhibition achieved at 0 min: 62.45 ± 3.67%
DENV-3 [6]; 60 min co-incubation, silymarin 200, baicalein 100, baicalin 20 µg/mL
  Viral infectivity inhibition at 60 min co-incubation (maximum): 97.24%
DENV-3 [6]; [14]
  Time taken to achieve 50% viral infectivity inhibition: 0 min
DENV-3 [6]; silymarin 200, baicalein 100 µg/mL
  Co-incubation time to reach up to 75% viral infectivity inhibition: 15 min
DENV-1
  inhibition at 100 µg/mL: 96.7 ± 2.1%
Vero cells [7]
  Concentrations up to which no significant cytotoxic effects were seen: ≤ 100 µg/mL
  MNTD80 (maximum non-toxic dose, 80% of cells viable): 122.95 ± 2.37 µg/mL
[8]; Vero cells, MTS assay, 48 h, mean ± SEM, read-out: CC50 (half maximum cytotoxic concentration)
  CC50 at 48 h: 271 ± 6.57 µg/mL (≈ 1000 µM)
DENV-3 [9]; DENV-3 into Vero cells, silymarin 200, baicalein 100, baicalin 20 µg/mL
  Inhibition of viral entry: 57.91 ± 11.65%
DENV-3 [10]; DENV-3 to Vero cells, silymarin 200, baicalein 100, baicalin 20 µg/mL
  Inhibition of viral attachment: 95.59 ± 1.44%
EVA-71; silymarin at < 1 min contact, baicalein maximum at 60 min
  Virucidal effect against EVA-71: 60%
EVA-71; silymarin for 65% effect, baicalein for maximum of 60% effect
  Period of contact (co-incubation time) needed for the virucidal effect: 60 min

## O=C(O)[C@H]1O[C@@H](Oc2cc3oc(-c4ccccc4)cc(=O)c3c(O)c2O)[C@H](O)[C@@H](O)[C@@H]1O [Baicalin]
DENV-3 progeny [1]; [12]
  IC50: 5.31 ± 1.96 µg/mL (≈ 11.9 µM)
DENV-3 progeny [1]; [13]
  inhibition at 20 µg/mL: 81%
DENV-3 progeny [1]; post-infection assay
  SI (CC50/IC50) against DENV-3 progeny, FFURA: 10.29
DENV-3 [2]; [14]
  FACS gating percentage (FITC-positive population): 42.35%
DENV-3 [2]; Dengue virus, DENV3, 48 h, read-out: Percentage of inhibition of DENV-3 infected cell population (FNT)
  inhibition at 20 µg/mL: 31.9%
Vero cells [11]
  CC50: 290.9 µg/mL (≈ 652 µM)
DENV-3 progeny [3]
  SI (CC50/IC50) against DENV-3 progeny, qRT-PCR: 12.06
  IC50: 4.53 ± 0.62 µg/mL (≈ 10.1 µM)
DENV-3 [4]; Dengue virus, DENV3
  IC50: 7.38 ± 1.1 µg/mL (≈ 16.5 µM)
DENV-3 [4]; extracellular DENV-3
  SI (CC50/IC50), virucidal assay, FFURA: 7.40
DENV-3 [4]
  Viral foci reduction at highest concentration, virucidal assay: 76%
DENV-3 [5]
  IC50: 17.4 ± 6.51 µg/mL (≈ 39 µM)
DENV-3 [5]; extracellular DENV-3
  SI (CC50/IC50), virucidal assay, qRT-PCR: 3.14
DENV-3 [6]; Dengue virus, DENV3, 1 h, read-out: Viral infectivity inhibition at 60 min co-incubation (maximum)
  inhibition at 20 µg/mL: 66.9%
DENV-3 [6]; [14]
  Time taken to achieve 50% viral infectivity inhibition: 25.8 min
Vero cells [7]
  Concentrations up to which no significant cytotoxic effects were seen: ≤ 20 µg/mL
  MNTD80 (maximum non-toxic dose, 80% of cells viable): 19.15 ± 0.07 µg/mL
[8]
  CC50 at 48 h: 54.6 ± 0.76 µg/mL (≈ 122 µM)
DENV-3 [9]; Dengue virus, DENV3, Vero, read-out: Inhibition of viral entry
  inhibition at 20 µg/mL: 49.8 ± 8.78%
DENV-3 [10]; Dengue virus, DENV3, Vero, read-out: Inhibition of viral attachment
  inhibition at 20 µg/mL: 48.5 ± 9.1%
